The target in assay [1] is T1, 5-hydroxytryptamine receptor 1A (Homo sapiens, UniProt P08908).
T1 sequence (P08908 whole entry): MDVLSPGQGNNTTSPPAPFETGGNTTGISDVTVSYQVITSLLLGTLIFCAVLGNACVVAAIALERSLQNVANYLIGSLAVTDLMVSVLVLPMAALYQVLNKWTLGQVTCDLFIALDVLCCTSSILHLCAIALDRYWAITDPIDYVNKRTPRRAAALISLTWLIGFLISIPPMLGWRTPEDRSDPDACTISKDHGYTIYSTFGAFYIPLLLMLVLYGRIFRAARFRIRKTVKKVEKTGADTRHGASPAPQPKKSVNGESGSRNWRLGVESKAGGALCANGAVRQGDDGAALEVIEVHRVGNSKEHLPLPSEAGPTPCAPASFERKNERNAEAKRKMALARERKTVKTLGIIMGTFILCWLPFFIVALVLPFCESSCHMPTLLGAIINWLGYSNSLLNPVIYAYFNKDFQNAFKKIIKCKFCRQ
Format: functional, cell-based.

Assay [2] concerns the target Delta-type opioid receptor (Homo sapiens, UniProt P41143).
Another assay deals with T2, Thromboxane A2 receptor (Homo sapiens, UniProt P21731).
T2 sequence (P21731 whole entry): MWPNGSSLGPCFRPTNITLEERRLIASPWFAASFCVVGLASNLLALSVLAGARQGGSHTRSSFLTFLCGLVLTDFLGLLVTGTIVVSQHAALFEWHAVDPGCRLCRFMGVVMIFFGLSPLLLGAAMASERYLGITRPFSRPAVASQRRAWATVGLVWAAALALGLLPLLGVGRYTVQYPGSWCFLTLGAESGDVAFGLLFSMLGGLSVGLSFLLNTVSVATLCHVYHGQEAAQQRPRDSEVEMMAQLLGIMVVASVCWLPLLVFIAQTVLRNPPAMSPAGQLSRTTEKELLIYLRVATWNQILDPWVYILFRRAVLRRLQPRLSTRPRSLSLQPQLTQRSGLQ

Assay [3] deals with Glutamate receptor ionotropic, NMDA 1 (Rattus norvegicus, UniProt P35439).
Assay [4] deals with Sodium-dependent dopamine transporter (Homo sapiens, UniProt Q01959).
Sequence of Sodium-dependent dopamine transporter (Q01959 whole entry): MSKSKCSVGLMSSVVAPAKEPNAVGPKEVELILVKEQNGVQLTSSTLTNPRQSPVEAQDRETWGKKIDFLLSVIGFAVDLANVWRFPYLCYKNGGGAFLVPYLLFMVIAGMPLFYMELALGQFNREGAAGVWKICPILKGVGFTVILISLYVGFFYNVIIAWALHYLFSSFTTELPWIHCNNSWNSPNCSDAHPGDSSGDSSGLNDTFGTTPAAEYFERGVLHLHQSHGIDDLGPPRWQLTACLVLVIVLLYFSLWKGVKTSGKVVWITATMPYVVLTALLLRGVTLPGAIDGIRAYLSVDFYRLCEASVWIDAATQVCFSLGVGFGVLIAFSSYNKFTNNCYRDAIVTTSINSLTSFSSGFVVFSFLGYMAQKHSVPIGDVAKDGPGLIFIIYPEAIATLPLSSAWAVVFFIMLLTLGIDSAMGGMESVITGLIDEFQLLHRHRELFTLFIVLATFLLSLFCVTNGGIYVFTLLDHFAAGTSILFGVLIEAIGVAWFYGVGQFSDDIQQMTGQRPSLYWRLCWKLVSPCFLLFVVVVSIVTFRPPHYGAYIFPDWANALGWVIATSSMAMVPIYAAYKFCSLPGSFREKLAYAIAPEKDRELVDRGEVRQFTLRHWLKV
A further assay concerns the target D(3) dopamine receptor (Homo sapiens, UniProt P35462).
For assay [5], the target named is T3, Alpha-2A adrenergic receptor (Homo sapiens, UniProt P08913).
T3 sequence (P08913 whole entry): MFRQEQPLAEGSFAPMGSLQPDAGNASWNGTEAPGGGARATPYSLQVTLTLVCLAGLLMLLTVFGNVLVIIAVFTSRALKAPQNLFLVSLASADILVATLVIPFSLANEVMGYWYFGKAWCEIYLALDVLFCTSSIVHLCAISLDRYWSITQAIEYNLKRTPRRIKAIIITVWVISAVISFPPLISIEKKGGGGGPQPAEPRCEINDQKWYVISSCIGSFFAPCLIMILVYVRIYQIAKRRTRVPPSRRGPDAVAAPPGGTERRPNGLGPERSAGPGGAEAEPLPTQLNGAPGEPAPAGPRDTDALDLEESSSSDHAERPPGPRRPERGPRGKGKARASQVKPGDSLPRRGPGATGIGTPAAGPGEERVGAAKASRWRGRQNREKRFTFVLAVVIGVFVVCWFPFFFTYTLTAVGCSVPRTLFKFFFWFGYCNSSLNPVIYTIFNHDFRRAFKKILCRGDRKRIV
Format: functional, cell-based.

The target in assay [6] is Voltage-gated inwardly rectifying potassium channel KCNH2 (Homo sapiens, UniProt Q12809). Format: functional.
Sequence of Voltage-gated inwardly rectifying potassium channel KCNH2 (Q12809 whole entry): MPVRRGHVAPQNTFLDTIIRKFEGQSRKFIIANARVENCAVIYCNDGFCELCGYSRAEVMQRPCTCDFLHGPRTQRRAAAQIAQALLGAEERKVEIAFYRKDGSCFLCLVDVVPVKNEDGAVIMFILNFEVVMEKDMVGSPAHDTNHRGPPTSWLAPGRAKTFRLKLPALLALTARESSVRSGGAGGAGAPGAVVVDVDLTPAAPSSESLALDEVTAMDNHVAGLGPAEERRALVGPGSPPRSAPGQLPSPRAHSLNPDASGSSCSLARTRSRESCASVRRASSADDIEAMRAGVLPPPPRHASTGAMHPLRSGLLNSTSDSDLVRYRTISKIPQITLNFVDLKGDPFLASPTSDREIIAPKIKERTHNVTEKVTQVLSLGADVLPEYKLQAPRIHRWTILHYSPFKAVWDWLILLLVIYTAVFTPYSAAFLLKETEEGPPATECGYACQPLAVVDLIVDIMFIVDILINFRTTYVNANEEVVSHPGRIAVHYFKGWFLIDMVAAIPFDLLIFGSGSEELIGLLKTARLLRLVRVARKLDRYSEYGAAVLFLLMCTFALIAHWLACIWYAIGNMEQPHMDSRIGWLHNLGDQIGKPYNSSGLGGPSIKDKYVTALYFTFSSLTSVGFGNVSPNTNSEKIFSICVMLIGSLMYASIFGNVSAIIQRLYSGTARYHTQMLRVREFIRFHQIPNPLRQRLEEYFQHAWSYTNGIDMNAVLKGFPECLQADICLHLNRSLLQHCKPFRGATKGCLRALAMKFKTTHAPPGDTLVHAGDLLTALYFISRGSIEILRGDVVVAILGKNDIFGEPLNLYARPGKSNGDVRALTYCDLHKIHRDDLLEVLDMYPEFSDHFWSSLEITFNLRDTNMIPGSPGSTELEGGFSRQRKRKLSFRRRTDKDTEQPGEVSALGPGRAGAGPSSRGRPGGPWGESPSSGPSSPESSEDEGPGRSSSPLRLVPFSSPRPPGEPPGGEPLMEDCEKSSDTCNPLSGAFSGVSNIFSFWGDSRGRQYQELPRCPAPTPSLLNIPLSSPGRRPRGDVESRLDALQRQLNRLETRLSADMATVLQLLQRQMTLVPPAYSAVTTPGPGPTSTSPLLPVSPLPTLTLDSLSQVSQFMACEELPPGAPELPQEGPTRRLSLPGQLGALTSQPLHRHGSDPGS
Assay [7] deals with T4, Alpha-2C adrenergic receptor (Homo sapiens, UniProt P18825).
T4 sequence (P18825 whole entry): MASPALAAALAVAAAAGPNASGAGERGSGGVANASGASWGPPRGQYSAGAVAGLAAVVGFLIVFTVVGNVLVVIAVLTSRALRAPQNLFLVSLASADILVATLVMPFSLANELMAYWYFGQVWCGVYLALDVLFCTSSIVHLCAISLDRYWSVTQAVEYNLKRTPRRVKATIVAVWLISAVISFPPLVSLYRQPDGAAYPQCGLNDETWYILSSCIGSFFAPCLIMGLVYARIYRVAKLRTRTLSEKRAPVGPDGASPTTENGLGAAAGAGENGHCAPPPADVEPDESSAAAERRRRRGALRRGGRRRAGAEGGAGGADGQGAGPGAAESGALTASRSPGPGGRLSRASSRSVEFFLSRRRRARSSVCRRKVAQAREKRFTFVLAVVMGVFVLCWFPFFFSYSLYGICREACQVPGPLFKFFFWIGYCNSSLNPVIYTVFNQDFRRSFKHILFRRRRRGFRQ
It counts as functional.

Assay [8] addresses Growth hormone secretagogue receptor type 1 (Homo sapiens, UniProt Q92847).
Assay [9] has as its target T5, Prostaglandin G/H synthase 1 (Rattus norvegicus, UniProt Q63921).
T5 sequence (Q63921 whole entry): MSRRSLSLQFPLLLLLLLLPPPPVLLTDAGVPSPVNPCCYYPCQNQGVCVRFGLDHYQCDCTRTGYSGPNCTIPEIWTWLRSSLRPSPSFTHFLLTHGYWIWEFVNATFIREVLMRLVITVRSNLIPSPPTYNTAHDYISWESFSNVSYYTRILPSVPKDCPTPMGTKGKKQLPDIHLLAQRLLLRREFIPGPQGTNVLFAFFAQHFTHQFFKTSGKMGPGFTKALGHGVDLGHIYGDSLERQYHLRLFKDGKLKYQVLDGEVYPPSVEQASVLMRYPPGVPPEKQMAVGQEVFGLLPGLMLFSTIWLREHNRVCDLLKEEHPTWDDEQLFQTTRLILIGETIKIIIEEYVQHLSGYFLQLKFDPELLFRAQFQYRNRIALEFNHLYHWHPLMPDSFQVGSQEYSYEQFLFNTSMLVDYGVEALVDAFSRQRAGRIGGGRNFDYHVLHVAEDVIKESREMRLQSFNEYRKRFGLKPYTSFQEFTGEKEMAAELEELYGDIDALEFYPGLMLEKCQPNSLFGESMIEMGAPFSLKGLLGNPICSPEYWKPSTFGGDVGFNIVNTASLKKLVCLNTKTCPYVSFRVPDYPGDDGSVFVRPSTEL
Format: functional.

The values below come from ChEMBL document CHEMBL5291721, “A preclinical secondary pharmacology resource illuminates target-adverse drug reaction associations of marketed drugs” (Nat Commun, 2023).
Further: assay procedure not described here.

Sequence of D(3) dopamine receptor (P35462 whole entry): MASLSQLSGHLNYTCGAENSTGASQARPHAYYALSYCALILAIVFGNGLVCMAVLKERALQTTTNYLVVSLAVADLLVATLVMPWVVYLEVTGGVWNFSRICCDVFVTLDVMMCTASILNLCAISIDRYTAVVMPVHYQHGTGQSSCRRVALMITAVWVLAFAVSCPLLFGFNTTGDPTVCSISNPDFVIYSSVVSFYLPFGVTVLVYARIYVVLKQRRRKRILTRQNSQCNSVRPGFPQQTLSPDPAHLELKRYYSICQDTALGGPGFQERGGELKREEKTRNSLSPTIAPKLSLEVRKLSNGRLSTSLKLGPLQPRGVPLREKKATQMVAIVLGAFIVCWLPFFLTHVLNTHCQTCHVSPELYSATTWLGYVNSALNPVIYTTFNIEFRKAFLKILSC
Sequence of Delta-type opioid receptor (P41143 whole entry): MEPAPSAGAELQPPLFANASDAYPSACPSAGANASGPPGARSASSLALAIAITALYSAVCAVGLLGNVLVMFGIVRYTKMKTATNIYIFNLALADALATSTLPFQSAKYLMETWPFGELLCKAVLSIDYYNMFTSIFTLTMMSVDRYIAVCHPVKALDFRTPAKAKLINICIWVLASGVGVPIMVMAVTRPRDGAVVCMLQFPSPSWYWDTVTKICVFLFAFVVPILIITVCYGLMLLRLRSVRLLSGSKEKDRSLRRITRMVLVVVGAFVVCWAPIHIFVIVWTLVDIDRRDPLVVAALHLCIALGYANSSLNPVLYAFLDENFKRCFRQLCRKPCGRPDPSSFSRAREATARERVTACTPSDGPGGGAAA
Sequence of Growth hormone secretagogue receptor type 1 (Q92847 whole entry): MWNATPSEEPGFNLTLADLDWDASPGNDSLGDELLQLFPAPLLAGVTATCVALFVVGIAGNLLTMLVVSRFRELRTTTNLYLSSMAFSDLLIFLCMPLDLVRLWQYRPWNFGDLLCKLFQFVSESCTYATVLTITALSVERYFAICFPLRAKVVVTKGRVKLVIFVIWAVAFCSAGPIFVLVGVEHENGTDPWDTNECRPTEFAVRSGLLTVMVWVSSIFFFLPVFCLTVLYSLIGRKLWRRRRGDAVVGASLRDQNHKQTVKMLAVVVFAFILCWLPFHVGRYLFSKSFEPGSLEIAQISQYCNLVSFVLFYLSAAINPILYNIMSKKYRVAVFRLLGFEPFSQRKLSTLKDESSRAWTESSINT

For `C=CCNc1nc(NCC=C)nc(N2CCN(C(c3ccc(F)cc3)c3ccc(F)cc3)CC2)n1` [ALMITRINE], the AC50 (in assay [1]; in assay [2]; on Thromboxane A2 receptor; in [3]; in assay [4]; at D(3) dopamine receptor) was above 30 µM in each case. The AC50 in [5], in [6], in assay [7], in [8] and in assay [9] was above 30 µM in each case.

Regarding `CCCCC(=O)O[C@]1(C(=O)CO)[C@@H](C)C[C@H]2[C@@H]3CCC4=CC(=O)C=C[C@]4(C)[C@@]3(F)[C@@H](O)C[C@@]21C` [BETAMETHASONE VALERATE], the AC50 (usually the concentration at which the activity in the assay is half-maximal) in assay [1] was above 30 µM; in [2] it was above 30 µM; on Thromboxane A2 receptor it was above 30 µM; in assay [3], above 10 µM; in assay [4] it was above 30 µM; at D(3) dopamine receptor it was above 30 µM. Also, the AC50 was above 10 µM in [5]; above 30 µM in assay [6]; above 10 µM in assay [7]; above 30 µM in assay [8]; above 30 µM in assay [9].

On to `COCC1=C(C(=O)O)N2C(=O)[C@@H](NC(=O)/C(=N\OC)c3csc(N)n3)[C@H]2SC1` [CEFPODOXIME], for which the AC50 (in assay [1]; in assay [2]; at Thromboxane A2 receptor; in assay [3]; in [4]; at D(3) dopamine receptor) was above 30 µM throughout. In addition, the AC50 in assay [5], in assay [6], in assay [7], in assay [8] and in assay [9] was above 30 µM throughout.

For the compound `CC1OC2(CS1)CN1CCC2CC1` (centres undefined) [CEVIMELINE], the AC50 in [1] is above 10 µM; in assay [2] it was above 30 µM; on Thromboxane A2 receptor it was above 10 µM; in assay [3], above 10 µM; in [4], above 10 µM; at D(3) dopamine receptor, above 30 µM. In addition, the AC50 in assay [5] was above 10 µM; in assay [6] it was above 30 µM; in [7] it was above 30 µM; in [8], above 10 µM; in assay [9], above 10 µM.

For the compound `CNC1=Nc2ccc(Cl)cc2C(c2ccccc2)=[N+]([O-])C1` [CHLORDIAZEPOXIDE], the concentration at half-maximal activity (AC50) in assay [1] was above 30 µM; in assay [2], above 30 µM; at Thromboxane A2 receptor, above 30 µM; in assay [3], above 10 µM; in [4], above 30 µM; at D(3) dopamine receptor it was above 30 µM. The AC50 in assay [5] was above 10 µM; in assay [6] it was above 30 µM; in assay [7] it was above 10 µM; in [8], above 30 µM; in assay [9], above 30 µM.

`Nc1ncn([C@H]2C[C@H](O)[C@@H](CO)O2)c(=O)n1` [DECITABINE]: the AC50 (in assay [1]; in [2]; at Thromboxane A2 receptor; in [3]; in [4]; at D(3) dopamine receptor) was above 30 µM each time. Also, the AC50 in [5], in [6], in assay [7], in assay [8] and in assay [9] was above 30 µM in each case.

`CC(C)(C)C(=O)OCC(=O)[C@H]1CC[C@H]2[C@@H]3CCC4=CC(=O)CC[C@]4(C)[C@H]3CC[C@]12C` [DESOXYCORTICOSTERONE PIVALATE]: the AC50 in [1] was above 10 µM; in [2], above 30 µM; at Thromboxane A2 receptor, above 10 µM; in assay [3], above 10 µM; in assay [4], above 10 µM; on D(3) dopamine receptor, above 30 µM. In addition, the AC50 in [5] was above 10 µM; in [6], above 30 µM; in assay [7], above 10 µM; in [8], above 10 µM; in [9], above 10 µM.

On to `CC(CCc1ccc(O)cc1)NCCc1ccc(O)c(O)c1` (centres undefined) [DOBUTAMINE], for which the AC50 is above 30 µM in [1]; above 30 µM in assay [2]; above 30 µM on Thromboxane A2 receptor; above 30 µM in [3]; 0.897 µM in [4]; 0.728 µM at D(3) dopamine receptor. The half-maximal activity concentration (AC50) is above 30 µM in assay [5]; 20.3 µM in assay [6]; 0.798 µM in assay [7]; above 30 µM in assay [8]; 5.31 µM in assay [9].

For `CCOC(=O)c1cncn1[C@H](C)c1ccccc1` [ETOMIDATE], the concentration at half-maximal activity (AC50) was above 10 µM in assay [1]; above 30 µM in assay [2]; above 10 µM at Thromboxane A2 receptor; above 10 µM in assay [3]; above 10 µM in assay [4]; above 30 µM on D(3) dopamine receptor. Moreover, the AC50 in assay [5] was above 10 µM; in [6], above 30 µM; in [7], above 10 µM; in assay [8], above 10 µM; in assay [9], above 10 µM.

As for `Clc1ccc(C(Cn2ccnc2)OCc2ccsc2Cl)c(Cl)c1` (centres undefined) [TIOCONAZOLE], the AC50 was above 30 µM in assay [1]; 3.2 µM in [2]; 28.1 µM on Thromboxane A2 receptor; above 30 µM in [3]; 10.6 µM in assay [4]; 24 µM on D(3) dopamine receptor. Also, the AC50 in assay [5] was above 30 µM; in assay [7], 6.5 µM; in assay [8], 8.5 µM; in [9], 12.4 µM.

Consider `CCOC(=O)C1=C[C@]2(CC)CCCN3CCc4c(n1c1ccccc41)[C@@H]32` [VINPOCETINE], for which the AC50 was above 30 µM in assay [1]; above 30 µM in assay [2]; above 30 µM at Thromboxane A2 receptor; above 30 µM in assay [3]; 21 µM in [4]; 23 µM at D(3) dopamine receptor. The AC50 in assay [5] was above 30 µM; in [7], 1.1 µM; in assay [8], above 30 µM; in [9] it was above 30 µM.
